Results reported in patent US6472157B2, “Methods for detection of promoter polymorphism in a UGT gene promoter” (Arch Development Corporation, priority 1999, dated 2002).
Entries after “also recorded” stand apart in the source; their conditions may differ.

What was measured:
[1] = test system: cytochrome P450 enzymes; assay: 7-ethoxycoumarin O-deethylation in human liver samples; assay type: in vitro ADME; details: liver samples used in the genotype study
Source text: To evaluate the functional viability of microsomal drug-metabolizing enzymes in the liver samples used in this study, the livers were screened for 7-ethoxycoumarin O-deethylation, as 7-ethoxycoumarin is oxidized to umbelliferone by multiple cytochrome P450 enzymes. The method used is described by Evans & Relling, J. Chromatogr., 578:141-145 (1992).

[2] = test system: UGT; assay: AZT glucuronidation assay in human liver microsomes (control); assay type: in vitro ADME; details: microsomes from normal humans and CN-1 patients; AZT 5 mM, 1 hour
Method: (§1) To ensure the viability and functional enzymatic activity of the microsomal preparations, the UGT activity toward another substrate, AZT (3′-azido-3′-deoxythymidine) was investigated as a control. Liver microsomes from normal humans, CN-1 patients, normal rats, and Gunn rats were prepared as described above. Investigations were performed in pooled microsomes from normal rats, normal humans and Gunn rats, while microsomes from CN-1 patients were used individually.
(§2) Microsomes were preincubated with oleolyl lysophosphatidylcholine (OLPC) (0.8% wt/wt. OLPC/microsomal protein) at 4° C. for 20 minutes. The final reaction mixture contained 1 mg/ml preincubated microsomes, AZT (5 mM), MgCl2 (10 mM), 0.2 M Tris-HCl buffer (pH 7.3), and UDPGA (10 mM) in a final volume of 300 μl. After an incubation period of 1 hour at 37° C., the reaction was stopped with the addition of 30 μl of HCl. Proteins were removed after centrifugation at 10,500 g for 5 minutes and 30 μl aliquots of the supernatant were subjected to HPLC analysis and the metabolites were detected in an ultraviolet detector at a wavelength of 265 nm. The mobile phase consisted of a 15:85 mixture of acetonitrile/ammonium phosphate buffer (0.1% vol/vol phosphoric acid, adjusted to pH 2.7 with ammonium hydroxide) used at a flow rate of 1 ml/min. […]

[3] = test system: UGT; assay: AZT glucuronidation assay in rat liver microsomes (control); assay type: in vitro ADME; details: microsomes from normal rats and Gunn rats; AZT 5 mM, 1 hour
Method: as §1, §2

[4] = test system: UGT; assay: PNP glucuronidation in human liver microsomes; assay type: in vitro ADME; details: PNP 360 μM, 10 minutes
Method: The formation of glucuronidated PNP was quantified by the following method. […] The reaction was stopped by the addition of 2.8 ml of 0.2 M glycine-NaOH buffer (pH 10.4). Samples were centrifuged at 2,500 rpm for 30 minutes, and UGT activity in the supernatant was analyzed colorimetrically in a spectrophotometer by measuring the disappearance of the substrate at a wavelength of 400 nm.

[5] = test system: UGT enzymes; assay: SN-38 glucuronidation assay in human liver microsomes; assay type: in vitro ADME; details: for mean SN-38 glucuronidation rate (peak area of SN-38 glucuronide ÷ peak area CPT) {SE}: African Americans liver microsomes
Method: (§3) To investigate which UGT enzymes are responsible for SN-38 glucuronidation, the in vitro metabolism of SN-38 was measured using normal human and rat liver microsomes, as well as microsomes from Gunn rats, Gunn, C. H., J. Hered., 29:137-139 (1938), and patients with Crigler-Najjar type I (CN-1) syndrome. Liver microsomes were prepared from normal humans, CN-1 patients, normal rats, and Gunn rats and assayed for SN-38 glucuronidation. Microsomes from human liver samples medically unsuitable for liver transplantation were acquired under the auspices of the Washington Regional Transplant Consortium. In addition, microsomes were prepared by differential centrifugation methods. Purba, H. S., et al., Br. J. Clin. Pharmaocol. 23:447-453, using human liver samples obtained with the approval of the Institutional Review Boards of institutions involved through the Liver Tissue Procurement and Distribution System. Investigations were performed with pooled microsomes from normal rats, normal humans and Gunn rats, while microsomes from CN-1 patients were used individually.
Microsomes (1 mg/ml) were incubated with SN-38 (5 μM), MgCl2 (10 mM), and UDPGA (5 mM) in a 0.1 M Tris-HCl buffer medium (pH 7.4) for 30 minutes at 37° C., in a final volume of 200 μl. After stopping the reaction with 400 μl methanol, the incubation mix was centrifuged at 2,500 rpm for 30 minutes at 4° C. The supernatant was evaporated to dryness under nitrogen and in preparation of analysis by high pressure liquid chromatography (HPLC), the supernatant was reconstituted with 250 μl of a mobile phase consisting of 35% acetonitrile and 65% 0.1 M KH2PO4 containing 3 mM sodium heptane sulphonate (pH 4.0), used at a flow rate of 0.8 ml/min. A C18μ Bondapak column (10 μm, 3.9×300 mm) was used with fluorescence detection at the following wavelengths: 355 nm and 515 nm. 100 μl aliquots of the reconstituted supernatant were injected into an HPLC assay system. CPT was used as the internal standard. […] Retention times were approximately 3.5, 9, and 10 minutes, respectively. The peaks for each of these compounds were confirmed using standards of SN-38G, SN-38, and CPT.
Microsomes (1 mg/ml) were obtained from human liver tissue samples and were incubated with SN-38 (5 μM), MgCl2 (10 mM), and UDPGA (5 mM) in a 0.1 M Tris-HCl buffer medium (pH 7.4) for 30 minutes at 37° C., in a final volume of 200 μl. SN-38, SN-38G and the internal standard, CPT, were separated using high performance liquid chromatography (HPLC) coupled to fluorescence detection (ex=355 nm and em=515 nm). SN-38 reaction rates were linear for incubation times up to at least 1.5 hours and for final protein concentrations of up to 2 mg/ml. The results of this analysis, shown in Table 2 below, also include the liver samples of Caucasian origin from the first study. […]

[6] = test system: UGT enzymes; assay: SN-38 glucuronidation assay in Gunn rat liver microsomes; assay type: in vitro ADME; details: liver microsomes from Gunn rats
Method: as §3
Microsomes (1 mg/ml) were incubated with SN-38 (5 μM), MgCl2 (10 mM), and UDPGA (5 mM) in a 0.1 M Tris-HCl buffer medium (pH 7.4) for 30 minutes at 37° C., in a final volume of 200 μl. […] A C18μ Bondapak column (10 μm, 3.9×300 mm) was used with fluorescence detection at the following wavelengths: 355 nm and 515 nm. […]

[7] = target: T1, human UGT1A1 (Homo sapiens, UniProt P22309); assay: SN-38 glucuronidation by cDNA-expressed UGT1A1 in HK293 cells; details: HK293 cells expressing UGT1A1; increased with increasing protein concentrations
T1 sequence (P22309 26-533): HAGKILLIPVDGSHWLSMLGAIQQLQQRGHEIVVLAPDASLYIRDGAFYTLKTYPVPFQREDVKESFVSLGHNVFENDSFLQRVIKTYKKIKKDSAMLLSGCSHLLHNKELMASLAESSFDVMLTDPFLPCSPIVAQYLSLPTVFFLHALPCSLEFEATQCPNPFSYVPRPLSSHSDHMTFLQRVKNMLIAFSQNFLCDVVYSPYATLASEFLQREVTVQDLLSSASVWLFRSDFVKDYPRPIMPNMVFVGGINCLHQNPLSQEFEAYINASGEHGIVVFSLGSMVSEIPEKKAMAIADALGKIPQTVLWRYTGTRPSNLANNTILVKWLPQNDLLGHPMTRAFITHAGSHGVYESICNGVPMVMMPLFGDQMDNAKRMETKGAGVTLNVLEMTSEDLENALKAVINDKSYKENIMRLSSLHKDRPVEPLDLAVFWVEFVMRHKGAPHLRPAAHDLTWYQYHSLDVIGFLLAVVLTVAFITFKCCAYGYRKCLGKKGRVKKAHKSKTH
Source text: (§4) Cell lysates from HK293 cells expressing UGT1A1 (♦), UGT1A4 (□) and UGT2B7 enzymes (Δ), and membrane preparations of HK293 cells expressing UGT1A1 enzyme (●), were screened for SN-38 glucuronidating activity. HK293 cells (⋄) were used as a control. Each data point represents the mean of three separate determinations.
(§5) To determine which particular isozyme of UGT1 glucuronidates SN-38, HK293 cells transfected with and expressing cDNA encoding selected UGT1 isozymes and a member of the UGT2 family (UGT2B7) were screened for SN-38 glucuronidating activity. Culture media and conditions for stable expression of human UGT1A1, UGT1A4, and UGT2B7 have been described previously. Coffman, et al., Mol. Pharmacol., 47:1101-1105 (1995), Green, et al., Drug Metab. Dispos., 23:299-302 (1995); Coffman, et al., Drug Metab. Dispos., 25:1-4 (1997) all are incorporated herein by reference. Briefly, the XbaI/XhoI and BamHI-XhoI fragments of human UGT1A1, UGT1A4, and UGT2B7 were subcloned into the respective corresponding sites of the mammalian expression vectors pcDNA3, pREP9, and pcDNA3.1. HK293 cells were transfected with the vector-UGT isozyme using the calcium phosphate transfection method. Chen, et al., Biotechniques, 6:632-638 (1988). The cells were then assayed for glucuronidation activity as described above.

[8] = target: T2, human UGT1A4 (Homo sapiens, UniProt P22310); assay: SN-38 glucuronidation by cDNA-expressed UGT1A4 in HK293 cells; details: HK293 cells expressing UGT1A4; up to a protein concentration of 2 mg/ml
T2 sequence (P22310 29-534): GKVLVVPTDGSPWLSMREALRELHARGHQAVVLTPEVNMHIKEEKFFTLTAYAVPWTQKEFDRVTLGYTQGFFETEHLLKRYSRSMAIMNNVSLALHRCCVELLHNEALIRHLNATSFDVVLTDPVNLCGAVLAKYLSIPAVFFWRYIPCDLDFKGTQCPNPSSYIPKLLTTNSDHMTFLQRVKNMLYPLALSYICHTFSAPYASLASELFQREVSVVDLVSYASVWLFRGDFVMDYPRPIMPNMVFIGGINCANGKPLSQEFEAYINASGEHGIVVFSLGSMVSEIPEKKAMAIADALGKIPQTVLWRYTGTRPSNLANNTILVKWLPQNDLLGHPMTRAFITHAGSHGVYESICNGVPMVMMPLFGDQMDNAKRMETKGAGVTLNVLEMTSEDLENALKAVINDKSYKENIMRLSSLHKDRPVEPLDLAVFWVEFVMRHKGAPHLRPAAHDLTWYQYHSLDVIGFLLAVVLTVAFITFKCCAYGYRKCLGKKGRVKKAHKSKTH
Source text: as §4, §5

[9] = target: T3, human UGT2B7 (Homo sapiens, UniProt P16662); assay: SN-38 glucuronidation by cDNA-expressed UGT2B7 in HK293 cells; details: HK293 cells expressing UGT2B7; up to a protein concentration of 2 mg/ml
T3 sequence (P16662 24-529): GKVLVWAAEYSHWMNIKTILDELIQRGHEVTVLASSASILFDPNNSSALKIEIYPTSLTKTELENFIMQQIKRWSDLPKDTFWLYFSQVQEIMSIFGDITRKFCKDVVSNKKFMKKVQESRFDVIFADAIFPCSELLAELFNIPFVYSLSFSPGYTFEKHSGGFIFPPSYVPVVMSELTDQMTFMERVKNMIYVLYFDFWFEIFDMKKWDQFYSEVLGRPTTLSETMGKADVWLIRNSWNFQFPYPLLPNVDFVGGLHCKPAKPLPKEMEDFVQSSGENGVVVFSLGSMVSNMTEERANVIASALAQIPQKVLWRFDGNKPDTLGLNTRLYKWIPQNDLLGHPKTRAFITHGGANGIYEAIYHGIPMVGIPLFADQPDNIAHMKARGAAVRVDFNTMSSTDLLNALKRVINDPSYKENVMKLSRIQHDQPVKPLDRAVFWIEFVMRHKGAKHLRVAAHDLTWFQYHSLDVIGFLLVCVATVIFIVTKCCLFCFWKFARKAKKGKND
Source text: as §4, §5

[10] = relative to Irinotecan; cited from earlier work

CCOc1ccc2ccc(=O)oc2c1 [7-ethoxycoumarin]
rates of umbelliferone formation (7-ethoxycoumarin O-deethylation) [1]: within the expected range

Cc1cn([C@H]2C[C@H](N=[N+]=[N-])[C@@H](CO)O2)c(=O)[nH]c1=O [AZT, 3′-azido-3′-deoxythymidine]
in vitro formation of G-AZT [2]: Intact in vitro formation of G-AZT | in vitro formation of G-AZT [3]: Intact in vitro formation of G-AZT

O=[N+]([O-])c1ccc(O)cc1 [PNP]
rates of PNP glucuronidation (mean±SEM) [4]: 20.39±2.4 nmol PNP glucuronidated/min/mg protein | rates of PNP glucuronidation (range) [4]: 16.48-23.82 nmol PNP glucuronidated/min/mg protein

CCc1c2c(nc3ccc(O)cc13)-c1cc3c(c(=O)n1C2)COC(=O)[C@]3(O)CC [SN-38, 7-ethyl-10-hydroxycamptothecin]
rates of SN-38G formation among individuals (range) ([5]; 25 normal human liver microsomes, SN-38 5 μM, 30 minutes, 37° C.): 0.5-26 pmol of SN-38G formed/min/mg microsomal protein | mean SN-38 glucuronidation rate (peak area of SN-38 glucuronide ÷ peak area CPT) {SE} ([5]; UGT1A1 promoter genotype 5/7): 0.39 | mean SN-38 glucuronidation rate (peak area of SN-38 glucuronide ÷ peak area CPT) {SE} ([5]; UGT1A1 promoter genotype 6/8): 0.12 | in vitro SN-38 glucuronidating activity ([5]; liver microsomes from CN-1 patients): no in vitro glucuronidation; also recorded: lack SN-38 glucuronidating activity | in vitro SN-38 glucuronidating activity [6]: no in vitro glucuronidation; also recorded: lack SN-38 glucuronidating activity | SN-38G formation [7]: measurable SN-38G formation | SN-38 glucuronidating activity [8]: lack of SN-38 glucuronidating activity | SN-38 glucuronidating activity [9]: lack of SN-38 glucuronidating activity | higher antitumor activity than Irinotecan [10]: 100-1,000 fold
